How the values were obtained:
[1] = wn = mass fraction of the nth substance listed; details: 298.15 K, 101 kPa, Liquid; for viscosity: Capillary tube (Ostwald / Ubbelohde) method; for speed of sound: Sing-around technique in a fixed-path interferometer; for mass density: Vibrating tube method
[2] = refractive index (Na D-line) (dimensionless); wn = mass fraction of the nth substance listed; details: 298.15 K, 101 kPa, Liquid, Standard Abbe refractometry

O=[N+]([O-])[O-].O=[N+]([O-])[O-].[Ba+2] [barium dinitrate] + O
Details	mass density, [1] [kg/m3]	refractive index, [2]	speed of sound, [1] [m/s]	viscosity, [1] [mPa·s]
w1 = 0.01	997.37	1.3327	1512.7	0.904
w1 = 0.03	998.48	1.3334	1516.4	0.91
w1 = 0.05	999.56	1.3342	1519.3	0.916
